ChEMBL document CHEMBL4507319 (2021)

Key:
[1] = molecular target: Serine/threonine-protein kinase D3 (Homo sapiens) (UniProt O94806); conditions: Compound concentration 1000.0 nM
[2] = molecular target: T1, Serine/threonine-protein kinase haspin (Homo sapiens) (UniProt Q8TF76); conditions: Compound concentration 1000.0 nM
T1 sequence (whole entry): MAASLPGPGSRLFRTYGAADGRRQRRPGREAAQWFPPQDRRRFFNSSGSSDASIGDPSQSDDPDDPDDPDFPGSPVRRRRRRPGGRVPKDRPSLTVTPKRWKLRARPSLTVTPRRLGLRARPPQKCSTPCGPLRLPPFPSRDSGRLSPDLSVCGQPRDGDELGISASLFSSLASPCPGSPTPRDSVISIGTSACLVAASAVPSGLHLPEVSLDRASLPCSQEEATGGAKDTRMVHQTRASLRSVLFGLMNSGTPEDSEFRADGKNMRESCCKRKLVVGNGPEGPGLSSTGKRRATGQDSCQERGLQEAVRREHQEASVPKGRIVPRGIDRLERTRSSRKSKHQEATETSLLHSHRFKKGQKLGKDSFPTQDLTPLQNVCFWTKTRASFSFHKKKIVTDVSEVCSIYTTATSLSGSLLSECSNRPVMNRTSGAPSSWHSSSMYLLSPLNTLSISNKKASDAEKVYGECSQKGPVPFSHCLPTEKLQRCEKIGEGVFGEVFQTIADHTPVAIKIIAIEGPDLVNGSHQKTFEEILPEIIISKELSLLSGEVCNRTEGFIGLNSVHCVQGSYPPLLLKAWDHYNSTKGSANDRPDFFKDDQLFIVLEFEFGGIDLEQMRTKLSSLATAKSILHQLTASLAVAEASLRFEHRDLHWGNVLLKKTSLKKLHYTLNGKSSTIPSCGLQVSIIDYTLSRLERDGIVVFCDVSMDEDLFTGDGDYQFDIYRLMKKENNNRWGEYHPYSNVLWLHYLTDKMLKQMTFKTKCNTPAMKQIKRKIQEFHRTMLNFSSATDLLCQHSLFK

[3] = molecular target: Calcium/calmodulin-dependent protein kinase kinase 1 (Homo sapiens) (UniProt Q8N5S9); conditions: Compound concentration 1000.0 nM
Sequence of Calcium/calmodulin-dependent protein kinase kinase 1 (Homo sapiens) (Q8N5S9 whole entry, looked up): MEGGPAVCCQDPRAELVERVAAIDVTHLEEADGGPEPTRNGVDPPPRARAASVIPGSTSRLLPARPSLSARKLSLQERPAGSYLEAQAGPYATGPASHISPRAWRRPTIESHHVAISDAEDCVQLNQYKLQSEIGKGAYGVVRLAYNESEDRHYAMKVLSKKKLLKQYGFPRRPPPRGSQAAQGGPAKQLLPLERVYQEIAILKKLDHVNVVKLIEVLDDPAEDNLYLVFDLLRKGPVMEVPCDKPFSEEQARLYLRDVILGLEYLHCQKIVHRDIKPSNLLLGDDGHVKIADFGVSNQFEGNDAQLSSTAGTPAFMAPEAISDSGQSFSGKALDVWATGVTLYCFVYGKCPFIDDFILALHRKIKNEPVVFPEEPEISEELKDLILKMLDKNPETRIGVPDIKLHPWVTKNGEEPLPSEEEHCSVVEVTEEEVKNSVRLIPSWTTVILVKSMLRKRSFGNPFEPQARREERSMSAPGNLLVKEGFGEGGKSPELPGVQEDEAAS

[4] = molecular target: T2, Serine/threonine-protein kinase D2 (Homo sapiens) (UniProt Q9BZL6); conditions: Compound concentration 1000.0 nM
T2 sequence (whole entry): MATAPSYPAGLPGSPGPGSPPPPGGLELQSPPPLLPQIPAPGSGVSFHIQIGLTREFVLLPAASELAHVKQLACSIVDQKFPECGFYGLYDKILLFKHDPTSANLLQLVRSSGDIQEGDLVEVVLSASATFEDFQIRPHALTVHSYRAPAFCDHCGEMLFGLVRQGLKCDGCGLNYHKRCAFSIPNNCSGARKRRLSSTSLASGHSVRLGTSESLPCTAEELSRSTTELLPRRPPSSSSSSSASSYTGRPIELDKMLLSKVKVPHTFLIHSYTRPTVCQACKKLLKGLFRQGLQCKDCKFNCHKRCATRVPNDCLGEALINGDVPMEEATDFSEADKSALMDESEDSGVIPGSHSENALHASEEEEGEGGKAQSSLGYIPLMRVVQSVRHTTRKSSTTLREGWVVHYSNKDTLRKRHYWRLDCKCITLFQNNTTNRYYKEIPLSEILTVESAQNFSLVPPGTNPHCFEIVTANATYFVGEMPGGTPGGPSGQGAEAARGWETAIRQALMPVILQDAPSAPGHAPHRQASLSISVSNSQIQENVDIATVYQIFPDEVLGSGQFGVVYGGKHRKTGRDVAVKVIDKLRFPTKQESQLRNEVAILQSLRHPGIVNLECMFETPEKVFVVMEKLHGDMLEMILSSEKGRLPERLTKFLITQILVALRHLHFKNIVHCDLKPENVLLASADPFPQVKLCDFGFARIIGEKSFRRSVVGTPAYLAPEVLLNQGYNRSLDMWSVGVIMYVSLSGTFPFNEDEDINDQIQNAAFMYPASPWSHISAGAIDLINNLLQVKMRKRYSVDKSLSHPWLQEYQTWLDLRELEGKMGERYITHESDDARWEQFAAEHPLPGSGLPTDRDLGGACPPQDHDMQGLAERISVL

[5] = molecular target: T3, Ephrin type-A receptor 8 (Homo sapiens) (UniProt P29322); conditions: Compound concentration 1000.0 nM
T3 sequence (whole entry): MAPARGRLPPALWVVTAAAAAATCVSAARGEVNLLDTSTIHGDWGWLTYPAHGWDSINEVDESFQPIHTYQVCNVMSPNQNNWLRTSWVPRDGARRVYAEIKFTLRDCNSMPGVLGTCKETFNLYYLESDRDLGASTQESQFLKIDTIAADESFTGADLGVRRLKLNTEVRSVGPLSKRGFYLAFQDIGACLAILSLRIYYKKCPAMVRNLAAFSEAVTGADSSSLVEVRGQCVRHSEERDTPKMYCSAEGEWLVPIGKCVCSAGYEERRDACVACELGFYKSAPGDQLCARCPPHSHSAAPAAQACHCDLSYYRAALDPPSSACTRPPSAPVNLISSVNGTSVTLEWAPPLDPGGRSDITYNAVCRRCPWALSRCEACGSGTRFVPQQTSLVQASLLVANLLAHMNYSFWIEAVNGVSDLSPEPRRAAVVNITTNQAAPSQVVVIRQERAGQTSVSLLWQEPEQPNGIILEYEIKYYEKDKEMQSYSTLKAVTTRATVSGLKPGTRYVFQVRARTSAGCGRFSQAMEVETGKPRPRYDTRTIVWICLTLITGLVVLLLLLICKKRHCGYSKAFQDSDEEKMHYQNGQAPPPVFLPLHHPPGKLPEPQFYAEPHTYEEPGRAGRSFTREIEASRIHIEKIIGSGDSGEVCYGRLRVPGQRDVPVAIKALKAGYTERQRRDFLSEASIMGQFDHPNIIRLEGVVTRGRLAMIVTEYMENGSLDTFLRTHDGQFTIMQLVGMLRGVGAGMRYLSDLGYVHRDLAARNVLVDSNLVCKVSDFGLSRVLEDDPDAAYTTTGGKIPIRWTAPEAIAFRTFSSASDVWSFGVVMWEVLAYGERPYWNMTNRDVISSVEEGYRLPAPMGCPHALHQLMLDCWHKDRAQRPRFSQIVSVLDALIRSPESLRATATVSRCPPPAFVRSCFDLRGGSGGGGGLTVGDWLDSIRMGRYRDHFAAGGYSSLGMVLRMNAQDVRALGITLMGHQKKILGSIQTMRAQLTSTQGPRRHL

[6] = molecular target: Serine/threonine-protein kinase DCLK2 (Homo sapiens) (UniProt Q8N568); conditions: Compound concentration 1000.0 nM
Sequence of Serine/threonine-protein kinase DCLK2 (Homo sapiens) (Q8N568 whole entry): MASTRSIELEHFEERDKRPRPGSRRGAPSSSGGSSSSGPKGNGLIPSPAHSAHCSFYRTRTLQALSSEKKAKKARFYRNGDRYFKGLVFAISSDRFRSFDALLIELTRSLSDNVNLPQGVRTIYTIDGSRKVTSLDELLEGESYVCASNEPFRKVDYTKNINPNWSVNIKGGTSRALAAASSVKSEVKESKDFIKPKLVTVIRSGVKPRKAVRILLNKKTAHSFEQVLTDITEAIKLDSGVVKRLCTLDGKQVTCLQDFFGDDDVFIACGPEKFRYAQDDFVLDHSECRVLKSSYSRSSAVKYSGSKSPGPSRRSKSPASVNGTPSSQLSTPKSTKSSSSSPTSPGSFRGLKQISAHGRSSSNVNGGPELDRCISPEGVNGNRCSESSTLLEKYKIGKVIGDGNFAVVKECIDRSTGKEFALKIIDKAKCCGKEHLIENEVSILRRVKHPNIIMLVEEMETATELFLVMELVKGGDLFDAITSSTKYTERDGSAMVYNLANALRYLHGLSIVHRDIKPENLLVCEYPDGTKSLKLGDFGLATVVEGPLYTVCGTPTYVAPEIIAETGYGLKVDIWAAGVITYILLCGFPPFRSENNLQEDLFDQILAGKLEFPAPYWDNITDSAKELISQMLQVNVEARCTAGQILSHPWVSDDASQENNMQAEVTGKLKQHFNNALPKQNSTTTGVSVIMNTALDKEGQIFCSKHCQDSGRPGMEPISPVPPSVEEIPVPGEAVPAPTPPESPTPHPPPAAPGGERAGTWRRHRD

[7] = molecular target: Muscarinic acetylcholine receptor M2 (Homo sapiens) (UniProt P08172); conditions: Compound concentration 10.0 uM
Sequence of Muscarinic acetylcholine receptor M2 (Homo sapiens) (P08172 whole entry): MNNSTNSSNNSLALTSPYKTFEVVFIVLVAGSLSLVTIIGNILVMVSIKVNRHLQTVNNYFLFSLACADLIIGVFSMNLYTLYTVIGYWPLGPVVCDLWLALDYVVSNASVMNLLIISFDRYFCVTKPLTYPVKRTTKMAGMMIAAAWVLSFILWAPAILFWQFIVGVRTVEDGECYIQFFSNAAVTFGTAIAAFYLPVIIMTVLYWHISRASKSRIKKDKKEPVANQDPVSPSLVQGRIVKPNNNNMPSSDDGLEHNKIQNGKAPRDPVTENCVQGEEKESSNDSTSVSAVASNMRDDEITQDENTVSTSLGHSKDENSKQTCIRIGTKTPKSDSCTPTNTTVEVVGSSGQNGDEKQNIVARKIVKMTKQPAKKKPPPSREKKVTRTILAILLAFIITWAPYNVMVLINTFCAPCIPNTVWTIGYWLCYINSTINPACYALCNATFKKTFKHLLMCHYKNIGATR

[8] = molecular target: Phosphatidylinositol 3-kinase catalytic subunit type 3 (Homo sapiens) (UniProt Q8NEB9); conditions: Compound concentration 1000.0 nM
Sequence of Phosphatidylinositol 3-kinase catalytic subunit type 3 (Homo sapiens) (Q8NEB9 whole entry): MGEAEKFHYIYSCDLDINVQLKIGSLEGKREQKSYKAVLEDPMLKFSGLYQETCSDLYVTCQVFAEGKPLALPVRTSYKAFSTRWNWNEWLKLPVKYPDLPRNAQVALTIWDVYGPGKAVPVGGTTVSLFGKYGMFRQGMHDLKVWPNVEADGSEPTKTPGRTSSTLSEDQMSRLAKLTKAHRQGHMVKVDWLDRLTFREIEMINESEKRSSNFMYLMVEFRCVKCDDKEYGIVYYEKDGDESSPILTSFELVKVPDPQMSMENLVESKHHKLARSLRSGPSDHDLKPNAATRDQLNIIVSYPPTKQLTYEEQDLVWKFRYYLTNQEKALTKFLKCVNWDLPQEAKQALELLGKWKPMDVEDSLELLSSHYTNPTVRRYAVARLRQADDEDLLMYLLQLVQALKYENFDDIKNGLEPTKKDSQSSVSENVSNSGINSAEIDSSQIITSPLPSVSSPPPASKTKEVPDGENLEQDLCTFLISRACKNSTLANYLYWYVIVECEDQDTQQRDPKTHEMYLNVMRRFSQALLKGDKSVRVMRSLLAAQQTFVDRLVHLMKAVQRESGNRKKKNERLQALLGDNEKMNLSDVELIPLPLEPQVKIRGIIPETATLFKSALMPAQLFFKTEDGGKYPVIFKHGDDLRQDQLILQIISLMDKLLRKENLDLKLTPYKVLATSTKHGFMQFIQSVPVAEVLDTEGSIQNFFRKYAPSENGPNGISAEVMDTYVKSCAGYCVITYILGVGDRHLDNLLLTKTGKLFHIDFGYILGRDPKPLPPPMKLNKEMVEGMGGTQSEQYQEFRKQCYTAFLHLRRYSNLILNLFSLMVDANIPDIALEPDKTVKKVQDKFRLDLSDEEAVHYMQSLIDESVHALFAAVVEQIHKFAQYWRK

[9] = tested on: Epidermal growth factor receptor (Homo sapiens), P00533 [L858R]; conditions: Compound concentration 1000.0 nM

Sequence of Serine/threonine-protein kinase D3 (Homo sapiens) (O94806 whole entry): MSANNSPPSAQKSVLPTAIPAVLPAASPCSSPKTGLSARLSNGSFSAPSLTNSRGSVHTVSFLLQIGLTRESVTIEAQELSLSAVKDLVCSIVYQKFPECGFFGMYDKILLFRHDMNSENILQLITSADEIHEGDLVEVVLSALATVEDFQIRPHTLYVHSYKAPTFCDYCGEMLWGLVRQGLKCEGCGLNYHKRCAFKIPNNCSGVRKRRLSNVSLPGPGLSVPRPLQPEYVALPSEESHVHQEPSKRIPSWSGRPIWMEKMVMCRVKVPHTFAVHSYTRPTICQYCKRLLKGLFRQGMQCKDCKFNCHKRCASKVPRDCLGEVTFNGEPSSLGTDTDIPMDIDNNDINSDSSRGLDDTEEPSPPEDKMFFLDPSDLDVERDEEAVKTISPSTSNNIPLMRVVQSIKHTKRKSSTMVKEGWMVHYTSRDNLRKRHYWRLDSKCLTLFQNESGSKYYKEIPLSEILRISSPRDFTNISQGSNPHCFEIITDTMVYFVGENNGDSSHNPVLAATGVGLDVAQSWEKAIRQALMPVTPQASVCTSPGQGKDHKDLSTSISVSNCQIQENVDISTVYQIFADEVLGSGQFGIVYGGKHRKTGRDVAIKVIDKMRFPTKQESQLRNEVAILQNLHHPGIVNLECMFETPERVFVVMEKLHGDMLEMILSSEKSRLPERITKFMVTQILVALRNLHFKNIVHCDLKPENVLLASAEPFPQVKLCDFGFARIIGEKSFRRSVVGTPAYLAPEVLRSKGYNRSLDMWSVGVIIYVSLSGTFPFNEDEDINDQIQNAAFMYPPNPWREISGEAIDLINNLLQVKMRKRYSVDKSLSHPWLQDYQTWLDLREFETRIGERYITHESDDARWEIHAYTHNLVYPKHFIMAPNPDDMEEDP

CCc1ccccc1C(=O)Nc1n[nH]c2c(C)c(F)c(C3C(C#N)=C(C)N(C)C(C)=C3C#N)cc12 [BAY-3827]
inactive: residual activity [1] 88% | residual activity [2] 100% | residual activity [3] 100% | residual activity [4] 87% | residual activity [5] 79% | residual activity [6] 64% | inhibition [7] 5.1% | residual activity [8] 100% | residual activity [9] 93%

CC1=C(C#N)C(c2ccc3c(c2)c(NC(=O)c2ccccc2C)nn3C)C(C#N)=C(C)N1 [BAY-974]
inactive: residual activity [1] 72% | residual activity [2] 71% | residual activity [3] 100% | residual activity [4] 95% | residual activity [5] 100% | residual activity [6] 100% | inhibition [7] -2.08% | residual activity [8] 87% | residual activity [9] 80%
